The text below walks through data of ChEMBL document CHEMBL1128619, “Chemoenzymatic synthesis of enantiomers of a new retinoid to investigate the role of chirality in the biological response” (Bioorg Med Chem Lett, 1995).

In data set [1] the test system is F9. As to the kind of experiment: Cellular activity on the differentiation was quantified by measure of plasminogen activator in mouse embryonal teratocarcinoma F9 cells. Format: functional, cell-based.
A short description of data set [2]: Half life in rat plasma was determined. Type of data set: ADME, organism-based.
The subject of data set [3] is F9. Nature of the data set: Cellular activity on the differentiation was quantified by measure of plasminogen activator in mouse embryonal teratocarcinoma F9 cells; NA means not active. Type of data set: functional, cell-based.

As to `CC1(C)CCC(C)(C)c2cc(COC(=O)c3ccc(C(=O)O)cc3)ccc21`, half-maximal activity with F9 [1] (AC50) was put at 140 nM. Also, the half-life in data set [2] was 2.3 h.
As to `C[C@H](OC(=O)c1ccc(C(=O)O)cc1)c1ccc2c(c1)C(C)(C)CCC2(C)C`, the half-life in data set [2] was more than 24 h. In addition, the AC50 result in the data set on F9 [3] was “Not Active”.
On to `C[C@@H](OC(=O)c1ccc(C(=O)O)cc1)c1ccc2c(c1)C(C)(C)CCC2(C)C`, for which the AC50 in the data set with F9 [1] was determined as 300 nM. The compound further gave a half-life in data set [2] of 6 h.
The like results for `CC(OC(=O)c1ccc(C(=O)O)cc1)c1ccc2c(c1)C(C)(C)CCC2(C)C` (stereo not drawn) were, in that order, 350 nM and more than 6 h.

In general, AC50 refers to the concentration giving half of the maximal activity seen. A word on the half-life: it is the time in which the quantity being followed falls by half.
